# Measurements published in patent US11986480B2, “Heterocyclic compound” (TOHOKU UNIVERSITY, priority 2017, dated 2024).
# Test system: EmGFP-HaloTag
# Experiment: Test Example 1: HeLa cells stably expressing EmGFP-HaloTag, Western blot GFP/actin (Testing Method A)
# Format: cell-based
# Conditions: 1 uM, 24 hours, 1 or less = degradation promoted
# Method: Test Example 1: Evaluation Method Using Cell Stably Expressing EmGFP-HaloTag (Testing Method A)
# HeLa cells stably expressing EmGFP-HaloTag were inoculated to Dulbecco's Modified Eagle Medium (DMEM) and cultured for 24 hours. Then, a test compound (specifically, compounds of Examples 1 to 7, 9 to 11, 13 to 15, 17 to 20, 24 to 27, 29, 32 to 33, 36 to 42, 44 to 46 and 56) was added thereto at the final concentration shown in Table 2, followed by incubation for 24 hours under conditions of 37° C./5% CO2. The cells were washed with PBS three times and treated with a cell lysis solution containing a proteolytic enzyme inhibitor to obtain a cell extract. The cell extract was subjected to SDS-PAGE. After the electrophoresis, GFP and actin were detected by Western blot. The ratio of the GFP/actin value of the drug-treated cells to the GFP/actin value of a control group in drug-untreated cells was regarded as an activity value. A value of 1 or less represents that degradation of EmGFP-HaloTag was promoted.
row,Structure (SMILES),Activity value (GFP/actin of drug-treated cells relative to drug-untreated control)
1,"Nc1nc2c(nc(/C=C/C(=O)NCCOCCOCCOCCOCCOCCCCCCCl)n2Cc2ccc(F)cc2)c(=O)[nH]1 [Example 5, (2E)-3-(2-Amino-9-(4-fluorobenzyl)-6-oxo-6,9-dihydro-1H-purin-8-yl)-N-(21-chloro-3,6,9,12,15-pentaoxahenicos-1-yl)acrylamide]",0.3
2,Nc1nc2c(nc(-c3cccc(OCCOCCOCCOCCOCCOCCCCCCCl)c3)n2Cc2ccc(F)cc2)c(=O)[nH]1 [Example 10],0.3
3,"CC(=O)N[C@@H](CSc1nc2c(=O)n(C)c(=O)n(C)c2n1Cc1ccc(F)cc1)C(=O)NCCOCCOCCOCCOCCOCCCCCCCl [Example 13, N^2-Acetyl-N-(21-chloro-3,6,9,12,15-pentaoxahenicos-1-yl)-S-(9-(4-fluorobenzyl)-1,3-dimethyl-2,6-dioxo-2,3,6,9-tetrahydro-1H-purin-8-yl)-L-cysteinamide]",0.1
4,"Nc1nc2c(nc(-c3cnn(CCOCCOCCOCCOCCOCCCCCCCl)c3)n2Cc2ccc(F)cc2)c(=O)[nH]1 [Example 14, 2-amino-8-(1-(21-chloro-3,6,9,12,15-pentaoxahenicos-1-yl)-1H-pyrazol-4-yl)-9-(4-fluorobenzyl)-1,9-dihydro-6H-purin-6-one]",0.2

# Same assay, conditions: 5 uM, 24 hours, 1 or less = degradation promoted
row,Structure (SMILES),Activity value (GFP/actin of drug-treated cells relative to drug-untreated control)
1,Nc1nc2c(nc(SCC(=O)NCCOCCOCCOCCOCCOCCCCCCCl)n2Cc2ccc(F)cc2)c(=O)[nH]1 [Example 7],0.79
2,"Nc1nc2c(nc(NCC(=O)NCCOCCOCCOCCOCCOCCCCCCCl)n2Cc2ccc(F)cc2)c(=O)[nH]1 [Example 9, N^2-(2-amino-9-(4-fluorobenzyl)-6-oxo-6,9-dihydro-1H-purin-8-yl)-N-(21-chloro-3,6,9,12,15-pentaoxahenicos-1-yl)glycinamide]",0.47

# Same assay, conditions: 10 uM, 24 hours, 1 or less = degradation promoted
row,Structure (SMILES),Activity value (GFP/actin of drug-treated cells relative to drug-untreated control)
1,"CC(=O)N[C@@H](CSc1nc2c(=O)[nH]c(N)nc2n1Cc1ccc(Cl)cc1)C(=O)NCCOCCOCCOCCOCCOCCCCCCCl [Example 1, N^2-Acetyl-S-(2-amino-9-(4-chlorobenzyl)-6-oxo-6,9-dihydro-1H-purin-8-yl)-N-(21-chloro-3,6,9,12,15-pentaoxahenicos-1-yl)-L-cysteinamide]",0.7
2,Nc1nc2c(nc(SCCC(=O)NCCOCCOCCOCCOCCOCCCCCCCl)n2Cc2ccc(F)cc2)c(=O)[nH]1 [Example 2],0.9
3,"Nc1nc2c(nc(-c3cccc(C(=O)NCCOCCOCCOCCOCCOCCCCCCCl)c3)n2Cc2ccc(F)cc2)c(=O)[nH]1 [Example 4, 3-(2-amino-9-(4-fluorobenzyl)-6-oxo-6,9-dihydro-1H-purin-8-yl)-N-(21-chloro-3,6,9,12,15-pentnoxahenicos-1-yl)benzamide]",0.8
4,"Nc1nc2c(nc(CCC(=O)NCCOCCOCCOCCOCCOCCCCCCCl)n2Cc2ccc(F)cc2)c(=O)[nH]1 [Example 6, 3-(2-Amino-9-(4-fluorobenzyl)-6-oxo-6,9-dihydro-1H-purin-8-yl)-N-(21-chloro-3,6,9,12,15-pentaoxahenicos-1-yl)propanamide]",0.94
5,"Nc1nc2c(nc(-c3ccc(OCCOCCOCCOCCOCCOCCCCCCCl)cc3)n2Cc2ccc(F)cc2)c(=O)[nH]1 [Example 11, 2-amino-8-(4-((21-chloro-3,6,9,12,15-pentaoxahenicos-1-yl)oxy)phenyl)-9-(4-fluorobenzyl)-1,9-dihydro-6H-purin-6-enea]",0.7

# Same assay, conditions: 100 uM, 24 hours, 1 or less = degradation promoted
row,Structure (SMILES),Activity value (GFP/actin of drug-treated cells relative to drug-untreated control)
1,"Nc1nc2c(nc(-c3ccc(C(=O)NCCOCCOCCOCCOCCOCCCCCCCl)cc3)n2Cc2ccc(F)cc2)c(=O)[nH]1 [Example 3, 4-(2-Amino-9-(4-fluorobenzyl)-6-oxo-6,9-dihydro-1H-purin-8-yl)-N-(21-chloro-3,6,9,12,15-pentaoxahenicos-1-yl)benzamide]",0.3
